# Test results taken from ChEMBL document CHEMBL1153596, “Design, synthesis, and characterization of 6beta-naltrexol analogs, and their selectivity for in vitro opioid receptor subtypes” (Bioorg Med Chem Lett, 2009).
# Key:
# [1] = biological target: Mu-type opioid receptor (Homo sapiens, UniProt P35372); assay: Displacement of [3H]DAMGO from human mu opioid receptor expressed in CHO cells by liquid scintillation counting; type: cell-based
# [2] = biological target: Delta-type opioid receptor (Homo sapiens, UniProt P41143); assay: Displacement of [3H]DADLE from human delta opioid receptor expressed in CHO cells by liquid scintillation counting; type: cell-based
# [3] = biological target: Kappa-type opioid receptor (Homo sapiens, UniProt P41145); assay: Displacement of [3H]U69,593 from human kappa opioid receptor expressed in CHO cells by liquid scintillation counting; type: cell-based
# [4] = organism: Homo sapiens; assay: Selectivity ratio of Ki for human delta opioid receptor to Ki for human mu opioid receptor
# [5] = organism: Homo sapiens; assay: Selectivity ratio of Ki for human kappa opioid receptor to Ki for human mu opioid receptor
# Mu-type opioid receptor, sequence (P35372 whole entry): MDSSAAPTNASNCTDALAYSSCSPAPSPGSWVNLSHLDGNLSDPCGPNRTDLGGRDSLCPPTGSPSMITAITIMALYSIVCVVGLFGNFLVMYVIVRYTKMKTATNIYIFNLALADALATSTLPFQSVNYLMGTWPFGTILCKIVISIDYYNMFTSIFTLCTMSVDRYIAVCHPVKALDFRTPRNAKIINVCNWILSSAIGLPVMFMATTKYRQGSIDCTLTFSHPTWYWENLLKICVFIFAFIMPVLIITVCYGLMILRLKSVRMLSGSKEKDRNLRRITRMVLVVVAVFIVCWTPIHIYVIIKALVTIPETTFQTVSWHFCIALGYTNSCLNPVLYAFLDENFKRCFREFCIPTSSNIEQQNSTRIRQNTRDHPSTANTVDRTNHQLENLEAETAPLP
# Kappa-type opioid receptor, sequence (P41145 whole entry): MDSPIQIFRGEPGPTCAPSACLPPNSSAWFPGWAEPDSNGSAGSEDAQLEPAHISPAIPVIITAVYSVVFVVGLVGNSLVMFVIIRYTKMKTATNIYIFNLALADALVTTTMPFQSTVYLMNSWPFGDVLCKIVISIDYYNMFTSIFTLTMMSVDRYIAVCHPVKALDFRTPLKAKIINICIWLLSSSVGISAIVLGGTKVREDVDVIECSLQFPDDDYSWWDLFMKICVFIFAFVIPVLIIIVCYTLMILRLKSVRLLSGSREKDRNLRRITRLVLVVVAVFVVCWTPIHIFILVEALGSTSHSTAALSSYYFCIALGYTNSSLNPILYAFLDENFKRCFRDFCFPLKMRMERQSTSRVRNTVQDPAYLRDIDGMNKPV
# Delta-type opioid receptor, sequence (P41143 whole entry): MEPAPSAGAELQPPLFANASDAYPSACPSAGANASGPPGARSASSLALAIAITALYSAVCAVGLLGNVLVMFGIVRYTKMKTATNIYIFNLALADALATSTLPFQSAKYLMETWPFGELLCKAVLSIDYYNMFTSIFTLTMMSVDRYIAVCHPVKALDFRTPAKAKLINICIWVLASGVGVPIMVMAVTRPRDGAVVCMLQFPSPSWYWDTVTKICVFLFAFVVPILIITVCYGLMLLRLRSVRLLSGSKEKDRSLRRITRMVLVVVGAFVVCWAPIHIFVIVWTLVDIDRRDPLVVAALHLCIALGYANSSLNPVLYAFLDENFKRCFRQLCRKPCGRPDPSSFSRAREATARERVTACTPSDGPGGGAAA
Compound,Ki [1] [nM],Ki [2] [nM],Ki [3] [nM],Ratio Ki [4],Ratio Ki [5]
CN(C)C(=O)O[C@@H]1CC[C@@]2(O)[C@H]3Cc4ccc(O)c5c4[C@@]2(CCN3CC2CC2)[C@H]1O5,1.85,334,28.2,180,15.2
O=C(O[C@@H]1CC[C@@]2(O)[C@H]3Cc4ccc(O)c5c4[C@@]2(CCN3CC2CC2)[C@H]1O5)N(c1ccccc1)c1ccccc1,0.56,74.6,14.7,133,26.3
CS(=O)(=O)O[C@@H]1CC[C@@]2(O)[C@H]3Cc4ccc(O)c5c4[C@@]2(CCN3CC2CC2)[C@H]1O5,1.11,93.1,6.75,83.8,6.1
Cc1ccc(S(=O)(=O)O[C@@H]2CC[C@@]3(O)[C@H]4Cc5ccc(O)c6c5[C@@]3(CCN4CC3CC3)[C@H]2O6)cc1,0.79,5.16,1.66,6.5,2.1
